Experimental data from patent US20230138310A1 (priority 2020, published 2023).
Several values for one entry are separate records, joined by “and”; a condition that tells them apart may be missing. Equal entries are not always repeated. Where two headings read alike, the source gives them in different places.

Experiments:
[1] = molecular target: T1, 3CL protease of 2019 Novel Coronavirus (2019-nCoV 3CLpro) (Severe acute respiratory syndrome coronavirus 2, UniProt P0DTD1); test: FRET inhibitory activity against 3CL protease of 2019 Novel Coronavirus; format: biochemical; conditions: for inhibition at 1 µM: read-out: Inhibition rate (1 μM), 3CL protease of 2019 Novel Coronavirus
T1 construct: the 3CL protease of 2019 Novel Coronavirus (2019-nCoV 3CL^pro)

2019-nCov [2] = test: Inhibitory activity against the replication of 2019-nCov (cytopathic effect, MTS); format: cell-based; conditions: for EC50: Severe acute respiratory syndrome coronavirus 2, gradient concentrations, CQ as positive control, read-out: EC50 against 2019-nCoV virus replication; for anti-virus activity against 2019-nCoV (in words): viral level, compared with positive control CQ
[3] = Half-toxic concentration (CC50) with CCK8 kit; format: cell-based; conditions: African green monkey, Vero E6 cells, in duplicate
Procedure: In this example, the half-toxic concentrations (CC50) of some compounds of the present invention to Vero E6 cells were determined with CCK8 kit in duplicate.

2019-nCov [4] = conditions: positive control, stated as existing value; read-out: EC50 of existing positive compound CQ against 2019-nCoV virus replication; cited from earlier work
[5] = FRET, tables 1A/1B, read-out: IC50 (nM) of SARS-CoV-2 3 CL protease
[6] = read-out: IC50 against 2019-nCoV 3CL protease

Row | Structure (SMILES) | inhibition at 1 µM [1] [%] | IC50 [1, 5] [nM] | inhibition at 1 µM ([1]; compound at 1 μM) [%] | IC50 [1, 6] | also measured
1 | O=C[C@H](C[C@@H]1CCNC1=O)NC(=O)[C@H](CC1CCCCC1)NC(=O)c1cc2ccccc2s1 [Compound 56] | 81.3 |  |  |  | 
2 | Cc1cc2ccccc2nc1C(=O)N[C@H](C(=O)N[C@@H](CC1CCCCC1)C(=O)N[C@H](C=O)C[C@@H]1CCNC1=O)C(C)C [Compound 19, 3-Methyl-N-{(S)-3-methyl-1-carbonyl-1-{{(S)-1-carbonyl-1-{{(S)-1-carbonyl-3-[(S)-2-carbonylpyrrolidin-3-yl]propan-2-yl}amino}-3-cyclohexylpropan-2-yl}amino}butan-2-yl}quinoline-2-carboxamide] |  | 62.7 ± 8.97 | 98.3 | < 100 nM | 
3 | O=C[C@H](C[C@@H]1CCNC1=O)NC(=O)[C@H](Cc1cccc(F)c1)NC(=O)c1cc2ccccc2[nH]1 [Compound 81] |  |  |  | < 100 nM | EC50 (2019-nCov [2]): 330 ± 90 nM; anti-virus activity against 2019-nCoV (in words) (2019-nCov [2]): better than that of the positive control CQ; anti-virus activity against 2019-nCoV (in words) (2019-nCov [2]; listed as 2259): excellent anti-virus activity; CC50 [3]: > 100000 nM
4 | O=C[C@H](C[C@@H]1CCNC1=O)NC(=O)[C@H](CC1CCCCC1)NC(=O)c1cnc2ccccc2n1 [Compound 59] | 86.7 |  |  |  | 
5 | CC(C)[C@H](NC(=O)c1cc2ccccc2[nH]1)C(=O)N[C@@H](CC1CCC(F)C(F)C1)C(=O)N[C@H](C=O)C[C@@H]1CCNC1=O (stereo partly shown) [Compound 35] | 94.3 |  |  |  | 
6 | CC(C)[C@H](NC(=O)c1cc2ccccc2o1)C(=O)N[C@@H](CC1CCCCC1)C(=O)N[C@H](C=O)C[C@@H]1CCNC1=O [Compound 17, N-{(S)-3-methyl-1-carbonyl-1-{{(S)-1-carbonyl-1-{{(S)-1-carbonyl-3-[(S)-2-carbonylpyrrolidin-3-yl]propan-2-yl}amino}-3-cyclohexylpropan-2-yl}amino}butan-2-yl}benzofuran-2-carboxamide] |  | 61 ± 12.5 | 106 | < 100 nM | 
7 | COc1ccc2[nH]c(C(=O)N[C@@H](CC3CCCCC3)C(=O)N[C@H](C=O)C[C@@H]3CCNC3=O)cc2c1 [Compound 50] | 89.1 |  |  |  | 
8 | O=C[C@H](C[C@@H]1CCNC1=O)NC(=O)[C@H](Cc1ccccc1)NC(=O)c1cc2ccc(F)cc2[nH]1 [Compound 46] | 89.3 |  |  |  | 
9 | CC(C)[C@H](NC(=O)c1cc2ccccc2[nH]1)C(=O)N[C@@H](CC1CCCCC1)C(=O)N[C@H](C=O)C[C@@H]1CCNC1=O [Compound 5, N-{(S)-3-methyl-1-carbonyl-1-{{(S)-1-carbonyl-1-{{(S)-1-carbonyl-3-[(S)-2-carbonylpyrrolidin-3-yl]propan-2-yl}amino}-3-cyclohexylpropan-2-yl}amino}butan-2-yl}indole-2-carboxamide] |  | 33.6 ± 3.45 | 95.7 | < 100 nM | 
10 | O=C[C@H](C[C@@H]1CCNC1=O)NC(=O)[C@H](Cc1ccccc1)NC(=O)c1cc2cc(F)ccc2[nH]1 [Compound 45] | 85.2 |  |  |  | 
11 | CCN(CC)CCCC(C)Nc1ccnc2cc(Cl)ccc12 (stereo not shown) [CQ] |  |  |  |  | EC50 (2019-nCov [4]): 1130 nM
12 | O=C[C@H](C[C@@H]1CCNC1=O)NC(=O)[C@H](CC1CCCCC1)NC(=O)c1cc2ccccc2[nH]1 [Compound 48] |  |  |  |  | EC50 (2019-nCov [2]): 290 nM; anti-virus activity against 2019-nCoV (in words) (2019-nCov [2]): better than that of the positive control CQ; anti-virus activity against 2019-nCoV (in words) (2019-nCov [2]; listed as 2234): excellent anti-virus activity; CC50 [3]: > 100000 nM
13 | O=C[C@H](C[C@@H]1CCNC1=O)NC(=O)[C@H](CC1CCCCC1)NC(=O)c1nc2ccccc2[nH]1 [Compound 57] | 92.3 |  |  |  | 
14 | CC(C)[C@H](NC(=O)c1cc2ccccc2o1)C(=O)N[C@@H](Cc1ccccc1)C(=O)N[C@H](C=O)C[C@@H]1CCNC1=O [Compound 10, N-{(S)-3-methyl-1-carbonyl-1-{{(S)-1-carbonyl-1-{{(S)-1-carbonyl-3-[(S)-2-carbonylpyrrolidin-3-yl]propan-2-yl}amino}-3-phenylpropan-2-yl}amino}butan-2-yl}benzofuran-2-carboxamide] |  | 67.5 ± 13.9 | 88.2 | < 100 nM | 
15 | O=C[C@H](C[C@@H]1CCNC1=O)NC(=O)[C@H](Cc1cccc(F)c1)NC(=O)c1cc2c(F)ccc(F)c2[nH]1 [Compound 83, 4,7-Difluoron-{(S)-1-carbonyl-1-{{(S)-1-carbonyl-3-[(S)-2-carbonylpyrrolidin-3-yl]propan-2-yl}amino}-3-3fluorophenylpropan-2-yl}-1H-indole-2-carboxamide] |  | 113 ± 9 | 97.8 |  | 
16 | O=C[C@H](C[C@@H]1CCNC1=O)NC(=O)[C@H](CC1CCCCC1)NC(=O)c1cc2c(F)cccc2[nH]1 [Compound 51] | 84.6 |  |  |  | 
17 | CC(C)[C@H](NC(=O)c1cc2ccccc2[nH]1)C(=O)N[C@@H](Cc1ccccc1)C(=O)N[C@H](C=O)C[C@@H]1CCNC1=O [Compound 9, N-{(S)-3-methyl-1-carbonyl-1-{{(S)-1-carbonyl-1-{{(S)-1-carbonyl-3-[(S)-2-carbonylpyrrolidin-3-yl]propan-2-yl}amino}-3-phenylpropan-2-yl}amino}butan-2-yl}indole-2-carboxamide] |  | 68.1 ± 12.5 | 95.8 | < 100 nM | 
18 | CC(C)[C@H](NC(=O)c1cc2ccccc2s1)C(=O)N[C@@H](CC1CCCCC1)C(=O)N[C@H](C=O)C[C@@H]1CCNC1=O [Compound 24] |  | 132 ± 14.7 | 93.3 |  | 
19 | Cn1c(C(=O)N[C@@H](CC2CCCCC2)C(=O)N[C@H](C=O)C[C@@H]2CCNC2=O)cc2ccccc21 [Compound 49] | 91.2 |  |  |  | 
20 | O=C[C@H](C[C@@H]1CCNC1=O)NC(=O)[C@H](CC1CCCCC1)NC(=O)c1cc2c(Cl)cc(Cl)cc2[nH]1 [Compound 47] | 90.4 |  |  |  | 
21 | CC(C)[C@H](NC(=O)c1cc2cc(Cl)ccc2o1)C(=O)N[C@@H](CC1CCCCC1)C(=O)N[C@H](C=O)C[C@@H]1CCNC1=O [Compound 20, 5-Chloro-N-{(S)-3-methyl-1-carbonyl-1-{{(S)-1-carbonyl-1-{{(S)-1-carbonyl-3-[(S)-2-carbonylpyrrolidin-3-yl]propan-2-yl}amino}-3-cyclohexylpropan-2-yl}amino}butan-2-yl}benzofuran-2-carboxamide] |  | 150 ± 9.55 | 101 |  | 
22 | O=C[C@H](C[C@@H]1CCNC1=O)NC(=O)[C@H](Cc1ccc(F)c(F)c1)NC(=O)c1cc2ccccc2[nH]1 [Compound 12] |  | 87 ± 8 | 103 | < 100 nM | 
23 | Cc1cc(C(=O)N[C@H](C(=O)N[C@@H](CC2CCCCC2)C(=O)N[C@H](C=O)C[C@@H]2CCNC2=O)C(C)C)no1 [Compound 6, 5-Methyl-N-{(S)-3-methyl-1-carbonyl-1-{{(S)-1-carbonyl-1-{{(S)-1-carbonyl-3-[(S)-2-carbonylpyrrolidin-3-yl]propan-2-yl}amino}-3-cyclohexylpropan-2-yl}amino}butan-2-yl}isoxazole-3-carboxamide] |  | 48.5 ± 3.17 | 95.8 | < 100 nM | 
24 | CC(C)[C@H](NC(=O)c1ccc2ccccc2n1)C(=O)N[C@@H](Cc1ccccc1)C(=O)N[C@H](C=O)C[C@@H]1CCNC1=O [Compound 11, N-{(S)-3-methyl-1-carbonyl-1-{{(S)-1-carbonyl-1-{{(S)-1-carbonyl-3-[(S)-2-carbonylpyrrolidin-3-yl]propan-2-yl}amino}-3-phenylpropan-2-yl}amino}butan-2-yl}quinoline-2-carboxamide] |  | 179 ± 29.4 | 89.7 |  | 
25 | CC(C)[C@H](NC(=O)c1cc2cccc(Br)c2o1)C(=O)N[C@@H](CC1CCCCC1)C(=O)N[C@H](C=O)C[C@@H]1CCNC1=O [Compound 18, 7-Bromo-N-{(S)-3-methyl-1-carbonyl-1-{{(S)-1-carbonyl-1-{{(S)-1-carbonyl-3-[(S)-2-carbonylpyrrolidin-3-yl]propan-2-yl}amino}-3-cyclohexylpropan-2-yl}amino}butan-2-yl}benzofuran-2-carboxamide] |  | 238 ± 18.7 | 97.8 |  | 
26 | CC(C)[C@H](NC(=O)c1ccc2ccccc2n1)C(=O)N[C@@H](CC1CCCCC1)C(=O)N[C@H](C=O)C[C@@H]1CCNC1=O [Compound 16, N-{(S)-3-methyl-1-carbonyl-1-{{(S)-1-carbonyl-1-{{(S)-1-carbonyl-3-[(S)-2-carbonylpyrrolidin-3-yl]propan-2-yl}amino}-3-cyclohexylpropan-2-yl}amino}butan-2-yl}quinoline-2-carboxamide] |  | 74 | 89.1 | < 100 nM and 73.5 nM | anti-virus activity against 2019-nCoV (in words) (2019-nCov [2]): excellent anti-virus activity; CC50 [3]: > 100000 nM
27 | O=C[C@H](C[C@@H]1CCNC1=O)NC(=O)[C@H](Cc1ccc(F)cc1)NC(=O)c1cc2ccccc2[nH]1 [Compound 82] |  | 103 ± 13 | 101 |  | 
